The source of these data is ChEMBL document CHEMBL1909046, “DrugMatrix in vitro pharmacology data”.

In test [1] the target is T1, Receptor-type tyrosine-protein phosphatase C (Homo sapiens, UniProt P08575).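 Also: inhibition of CD45 enzyme activity measured using DiFMUP as substrate; in other assays of this panel Not Active means under 50% inhibition at 10 µM.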
T1 sequence (P08575 whole entry): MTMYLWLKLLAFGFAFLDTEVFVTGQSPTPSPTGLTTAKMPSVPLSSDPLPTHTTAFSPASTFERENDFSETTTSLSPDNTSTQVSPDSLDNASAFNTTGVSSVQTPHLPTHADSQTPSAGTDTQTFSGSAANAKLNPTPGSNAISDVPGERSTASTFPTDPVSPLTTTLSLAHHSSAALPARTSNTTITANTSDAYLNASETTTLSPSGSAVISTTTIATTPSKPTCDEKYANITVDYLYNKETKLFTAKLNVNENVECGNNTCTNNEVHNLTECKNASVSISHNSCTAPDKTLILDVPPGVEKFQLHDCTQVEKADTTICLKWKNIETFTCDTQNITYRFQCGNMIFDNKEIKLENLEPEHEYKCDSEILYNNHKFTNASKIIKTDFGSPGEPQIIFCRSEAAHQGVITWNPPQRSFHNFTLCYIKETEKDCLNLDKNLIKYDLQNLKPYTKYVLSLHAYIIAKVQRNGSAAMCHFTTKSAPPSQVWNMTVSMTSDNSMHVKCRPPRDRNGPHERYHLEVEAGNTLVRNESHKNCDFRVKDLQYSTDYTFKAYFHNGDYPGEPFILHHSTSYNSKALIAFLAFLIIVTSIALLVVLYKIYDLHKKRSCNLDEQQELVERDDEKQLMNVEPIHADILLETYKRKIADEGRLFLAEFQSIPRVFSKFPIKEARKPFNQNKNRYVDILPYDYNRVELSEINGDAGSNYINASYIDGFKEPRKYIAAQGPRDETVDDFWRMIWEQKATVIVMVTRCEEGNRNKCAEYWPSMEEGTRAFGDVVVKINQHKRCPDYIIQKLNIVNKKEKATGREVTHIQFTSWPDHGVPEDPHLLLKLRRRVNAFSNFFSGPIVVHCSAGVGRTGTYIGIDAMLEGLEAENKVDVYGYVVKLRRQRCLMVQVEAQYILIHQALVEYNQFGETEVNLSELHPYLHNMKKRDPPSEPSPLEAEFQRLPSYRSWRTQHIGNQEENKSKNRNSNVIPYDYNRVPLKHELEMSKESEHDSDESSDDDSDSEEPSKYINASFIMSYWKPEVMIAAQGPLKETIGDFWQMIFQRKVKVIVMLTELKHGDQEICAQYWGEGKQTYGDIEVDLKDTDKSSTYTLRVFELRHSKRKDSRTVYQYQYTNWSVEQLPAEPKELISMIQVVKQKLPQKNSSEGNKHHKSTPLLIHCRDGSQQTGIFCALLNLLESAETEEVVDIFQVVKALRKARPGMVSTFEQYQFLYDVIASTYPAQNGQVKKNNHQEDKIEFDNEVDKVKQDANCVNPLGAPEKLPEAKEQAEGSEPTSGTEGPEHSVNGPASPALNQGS
Set-up: species or system Escherichia coli.

Test [2] addresses Aldo-keto reductase family 1 member B1 (Rattus norvegicus, UniProt P07943). The test is described as follows: biochemical. In kind it is tissue-based, Lens of camera-type eye.
Test [3] concerns the target Mitogen-activated protein kinase 1 (Homo sapiens, UniProt P28482). The test is described as follows: DRUGMATRIX: Protein Serine/Threonine Kinase, ERK2 enzyme inhibition (substrate: Myelin Basic Protein). Further details: species or system Escherichia coli. The following applies: Not Active = under 50% inhibition at 10 µM.
Test [4] has as its target D(3) dopamine receptor (Homo sapiens, UniProt P35462). The test is described as follows: DRUGMATRIX: Dopamine D3 radioligand binding (ligand: [3H] Spiperone). In kind it is cell membranes, CHO, Membrane.
The target of test [5] is Melanocortin receptor 5 (Homo sapiens, UniProt P33032). It is filed as cell membranes, HEK293, Membrane. As to conditions: hek293. Also: in other assays of this panel Not Active means under 50% inhibition at 10 µM.
Sequence of Melanocortin receptor 5 (P33032 whole entry): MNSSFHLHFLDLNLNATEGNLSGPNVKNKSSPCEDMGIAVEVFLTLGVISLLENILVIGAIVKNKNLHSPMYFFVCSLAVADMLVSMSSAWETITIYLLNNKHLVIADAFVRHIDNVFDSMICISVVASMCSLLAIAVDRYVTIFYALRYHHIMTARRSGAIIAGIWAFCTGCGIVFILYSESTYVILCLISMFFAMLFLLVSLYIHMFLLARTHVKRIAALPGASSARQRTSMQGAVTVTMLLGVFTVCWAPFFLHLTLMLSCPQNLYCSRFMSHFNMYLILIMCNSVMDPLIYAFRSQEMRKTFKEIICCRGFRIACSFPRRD

Sequence of Mitogen-activated protein kinase 1 (P28482 whole entry): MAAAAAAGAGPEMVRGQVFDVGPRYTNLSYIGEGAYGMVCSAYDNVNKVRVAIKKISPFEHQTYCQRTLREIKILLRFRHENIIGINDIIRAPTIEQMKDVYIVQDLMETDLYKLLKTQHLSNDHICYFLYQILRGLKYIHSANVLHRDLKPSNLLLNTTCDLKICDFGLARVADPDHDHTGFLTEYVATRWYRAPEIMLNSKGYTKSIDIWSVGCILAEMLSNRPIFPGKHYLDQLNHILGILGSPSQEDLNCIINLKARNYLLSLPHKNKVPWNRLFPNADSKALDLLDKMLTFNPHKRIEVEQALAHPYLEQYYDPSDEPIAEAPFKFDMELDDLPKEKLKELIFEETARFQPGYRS
Sequence of D(3) dopamine receptor (P35462 whole entry): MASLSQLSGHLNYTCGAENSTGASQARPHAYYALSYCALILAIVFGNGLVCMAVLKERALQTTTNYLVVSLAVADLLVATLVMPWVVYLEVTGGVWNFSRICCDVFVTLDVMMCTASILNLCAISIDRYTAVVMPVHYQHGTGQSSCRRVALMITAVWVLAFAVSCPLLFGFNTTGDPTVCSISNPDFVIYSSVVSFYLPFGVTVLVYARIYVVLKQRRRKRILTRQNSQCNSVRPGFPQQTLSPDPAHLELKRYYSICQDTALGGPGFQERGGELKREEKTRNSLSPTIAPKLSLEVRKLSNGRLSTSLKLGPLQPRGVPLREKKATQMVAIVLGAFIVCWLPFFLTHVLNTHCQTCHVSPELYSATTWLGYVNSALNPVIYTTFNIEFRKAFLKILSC

The IC50 is the concentration that gives 50% inhibition. With `COc1cc2c3cc1Oc1cc(ccc1O)C[C@@H]1c4c(cc(OC)c(O)c4Oc4ccc(cc4)C[C@@H]3N(C)CC2)CC[N+]1(C)C.[Cl-]`, the IC50 result in test [1], in test [2], in test [3], in test [4] (cho) and in test [5] was “Not Active” each time.

On to `Sc1ncnc2nc[nH]c12` [MERCAPTOPURINE ANHYDROUS], for which the concentration for half-maximal inhibition (IC50) result in test [1], in test [2], in test [3], in test [4] (cho) and in test [5] was “Not Active” each time.

Consider `CC(C)(C)NCC(O)c1cc(Cl)c(N)c(Cl)c1` (stereo unspecified) [CLENBUTEROL], for which the IC50 entry in test [1], in test [2], in test [3], in test [4] (cho) and in test [5] was “Not Active” throughout.

With `O=C(O)CCCc1ccc(N(CCCl)CCCl)cc1` [CHLORAMBUCIL], the IC50 entry in test [1] is “Not Active”; in test [2] (read-out: IC50) it was 9.41 µM; in test [3], “Not Active”; in test [4] (cho) it was “Not Active”; in test [5] it was “Not Active”.

For `CC1(C)O[C@@H]2C[C@H]3[C@@H]4CCC5=CC(=O)CC[C@]5(C)[C@@]4(F)[C@@H](O)C[C@]3(C)[C@]2(C(=O)CCl)O1` [HALCINONIDE], the half-inhibitory concentration (IC50) result in test [1], in test [2], in test [3], in test [4] (cho) and in test [5] was “Not Active” throughout.

With `CC(C)C(Br)C(=O)NC(N)=O` (stereo unspecified) [BROMISOVALUM], the IC50 result in test [1], in test [2], in test [3], in test [4] (cho) and in test [5] was “Not Active” throughout.

Regarding `C[C@]12CCC(=O)C=C1CC[C@@H]1[C@@H]2CC[C@@]2(C)[C@H]1CC[C@]2(C)O` [METHYLTESTOSTERONE], the half-inhibitory concentration (IC50) result in test [1], in test [2], in test [3], in test [4] (cho) and in test [5] was “Not Active” in each case.

As for `C[C@]12CC[C@@H]3c4ccc(O)cc4CC[C@H]3[C@@H]1CCC2=O` [ESTRONE], the IC50 entry in test [1], in test [2], in test [3], in test [4] (cho) and in test [5] was “Not Active” in each case.

For orientation: Ki means a measure of affinity in units of concentration, obtained from inhibition or displacement. Turning to `CN(C)CCCN1c2ccccc2Sc2ccccc21` [PROMAZINE], the IC50 result in test [1] was “Not Active”; in test [2], “Not Active”; in test [3], “Not Active”; in test [4] (read-out: IC50), 0.205 µM; in test [5] it was “Not Active”. Further, in test [4] (read-out: Ki), the Ki stood at 0.069 µM.

On to `C[C@](N)(Cc1ccc(O)c(O)c1)C(=O)O` [METHYLDOPA], for which the half-inhibitory concentration (IC50) entry in test [1], in test [2], in test [3], in test [4] (cho) and in test [5] was “Not Active” in each case.

As for `CCCC1O[C@@H]2C[C@H]3[C@@H]4CCC5=CC(=O)C=C[C@]5(C)[C@H]4[C@@H](O)C[C@]3(C)[C@]2(C(=O)CO)O1` (stereo partly specified) [BUDESONIDE], the IC50 entry in test [1], in test [2], in test [3], in test [4] (cho) and in test [5] was “Not Active” each time.

On to `CC1Cc2ccccc2N1NC(=O)c1ccc(Cl)c(S(N)(=O)=O)c1` (stereo unspecified) [INDAPAMIDE], for which the half-maximal inhibitory concentration (IC50) entry in test [1], in test [2], in test [3], in test [4] (cho) and in test [5] was “Not Active” throughout.

With `CNCCCN1c2ccccc2CCc2ccccc21` [DESIPRAMINE], the half-inhibitory concentration (IC50) entry in test [1], in test [2], in test [3], in test [4] (cho) and in test [5] was “Not Active” throughout.

With `CC(=O)O[C@@]12CO[C@@H]1C[C@H](O)[C@@]1(C)C(=O)[C@H](O)C3=C(C)[C@@H](OC(=O)[C@H](O)[C@@H](NC(=O)OC(C)(C)C)c4ccccc4)C[C@@](O)([C@@H](OC(=O)c4ccccc4)[C@H]21)C3(C)C.O.O.O` [DOCETAXEL], the IC50 entry in test [1], in test [2], in test [3], in test [4] (cho) and in test [5] was “Not Active” in each case.

Regarding `C[C@H]1c2cccc(O)c2C(=O)C2=C(O)[C@]3(O)C(=O)C(C(N)=O)=C(O)[C@@H](N(C)C)[C@@H]3[C@@H](O)[C@@H]21.O` [DOXYCYCLINE], the IC50 entry in test [1], in test [2], in test [3], in test [4] (cho) and in test [5] was “Not Active” in each case.

In the case of `CCC(C)n1ncn(-c2ccc(N3CCN(c4ccc(OCC5COC(Cn6cncn6)(c6ccc(Cl)cc6Cl)O5)cc4)CC3)cc2)c1=O` (stereo unspecified) [ITRACONAZOLE], the 50% inhibitory concentration (IC50) entry in test [1], in test [2], in test [3], in test [4] (cho) and in test [5] was “Not Active” in each case.

On to `COc1cc2nc(N3CCN(C(=O)C4COc5ccccc5O4)CC3)nc(N)c2cc1OC` (stereo unspecified) [DOXAZOSIN], for which the half-maximal inhibitory concentration (IC50) result in test [1], in test [2], in test [3], in test [4] (cho) and in test [5] was “Not Active” in each case.

Regarding `CCCCN1CCCC[C@H]1C(=O)Nc1c(C)cccc1C` [LEVOBUPIVACAINE], the half-inhibitory concentration (IC50) entry in test [1], in test [2], in test [3], in test [4] (cho) and in test [5] was “Not Active” each time.

As for `CC1CC(OC(=O)C(O)c2ccccc2)CC(C)(C)C1` (stereo unspecified) [CYCLANDELATE], the IC50 entry in test [1], in test [2], in test [3], in test [4] (cho) and in test [5] was “Not Active” each time.

As for `CC(C)C(=O)Nc1ccc([N+](=O)[O-])c(C(F)(F)F)c1` [FLUTAMIDE], the 50% inhibitory concentration (IC50) entry in test [1], in test [2], in test [3], in test [4] (cho) and in test [5] was “Not Active” throughout.

As to `O=c1oc2ccccc2c(O)c1Cc1c(O)c2ccccc2oc1=O` [DICUMAROL], the 50% inhibitory concentration (IC50) entry in test [1] is “Not Active”; in test [2] (read-out: IC50) it was 4.09 µM; in test [3] (read-out: IC50), 4.43 µM; in test [4] (cho), “Not Active”; in test [5], “Not Active”.
